# Assay results published in patent US20220143116A1 (priority 2019, published 2022).
# Several values for one entry are separate records, joined by “and”; a condition that tells them apart may be missing. Equal entries are not always repeated.
# How the values were obtained:
# [1] = test system: B16TK cells; format: cell-based, murine
# [2] = test system: B16TK (scrambled shRNA) or B16TK (shRNA APOBEC3) tumors; set-up: species or system C57Bl/6 mice; conditions: mouse, in vivo
# [3] = test system: B16TK-hAPOBEC3B tumors; set-up: species or system C57BL/6 mice; conditions: mouse, in vivo
# [4] = test system: B16TK-hAPOBEC3B subcutaneous tumors; set-up: species or system C57BL/6 mice; conditions: mouse, in vivo
smiles,measurement,setting,value
Nc1nc(O)c2ncn(COC(CO)CO)c2n1 [ganciclovir],sensitivity of B16TK cells to treatment,[1],sensitive
same,long term survivors,[2],0/7 and 4/7
same,tumor growth following GCV treatment,[3],grew significantly more quickly
same,tumor growth following GCV treatment,[4],grew significantly more quickly
